From the METLIN SMRT retention time set (Domingo-Almenara et al. 2019)

Assay: gradient 5% acetonitrile 3 min, to 50% in 2 min, to 85% in 15 min, held 3 min, 100 µL/min
Conditions: column: Zorbax Extend-C18 2.1 x 50 mm; eluents: water / acetonitrile, 0.1% formic acid
In short: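 In both positive and negative ionization mode, a quadrupole time-of-flight mass spectrometer coupled to HPLC analyzed pure standards run in mixtures of ~100 molecules. The Zorbax Extend-C18 column (2.1 × 50 mm, 1.8 μm) was operated at 100 μL/min with water and acetonitrile, each containing 0.1% formic acid. The dead volume was 40 μL and the dwell volume 900 μL. Retention time came from adduct peaks that were computationally picked and individually inspected by hand.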

| RP-LC retention time | Structure (SMILES) |
| --- | --- |
| 910 s | CCOc1ccc(-c2noc(Cn3c(=O)n(-c4ccccc4)c(=O)c4sccc43)n2)cc1OC |
| 741 s | O=C(CS(=O)(=O)Cc1ccccc1)NCc1ccccc1 |
| 790 s | Cc1ccc(S(=O)(=O)NCC(c2cccnc2)c2cn(C)c3ccccc23)cc1C (stereo unspecified) |
| 606 s | Cc1cc(C)cc(NC(=O)Cn2ncc3c(N4CCN(c5ccccn5)CC4)ncnc32)c1 |
| 700 s | Cc1cc(C)n2nc(SCC(=O)Nc3ccccc3)nc2n1 |
| 801 s | O=C(Cn1cnc(-c2cccs2)cc1=O)NCc1ccccc1OC(F)(F)F |
| 719 s | COc1ccc(Cl)cc1C(=O)Nc1ccc(-c2nc(C)no2)cc1 |
| 800 s | COc1ccc(-c2nc(NC(=O)c3cccnc3)sc2C)cc1 |
| 1050 s | CCn1cc(-c2nc(C(=O)NCc3ccc(F)c(Cl)c3)cs2)c2cccnc21 |
| 1240 s | Cc1ccccc1S(=O)(=O)N1CCc2nc(-c3ccc(Cl)cc3)ncc2C1 |
| 664 s | O=C(NCCOc1ccc2nnc(-c3ccccc3Cl)n2n1)c1cccs1 |
| 796 s | CC(C)C(=O)Nc1ccc(-n2cnc(C(=O)NCc3ccc(Cl)cc3)c2)nc1 |
| 655 s | CCN1CCN(c2nc3cc(C(=O)OC)ccc3c(=O)n2-c2ccc(F)c(Cl)c2)CC1 |
| 977 s | O=C1CC(c2nc(-c3ccccc3F)no2)CN1c1cccc(Cl)c1 (stereo unspecified) |
| 825 s | Cc1ccc(NC(=O)Cn2nc(C(=O)N3CCOCC3)c3ccccc32)c(Br)c1 |
| 1280 s | Cc1nc2c(sc3nc(-c4ccccc4)ccc32)c(=O)n1CC(=O)Nc1ccc(C(F)(F)F)cc1 |
| 605 s | CCN1CCN(c2cc(C)c3cc(NC(=S)NCc4ccccc4OC)ccc3n2)CC1 |
| 562 s | CN(C)c1ccc(CNC(=O)C2CCN(c3cnc4nccnc4c3)CC2)cc1 |
| 908 s | COc1ccc(C(C)NC(=O)Cn2nc3cc(-c4ccccc4)nc(C)n3c2=O)cc1 (stereo unspecified) |
| 637 s | CNC(=O)c1sc2nc(-c3ccccc3)c(NCCOC)n2c1C |
| 998 s | COc1ccc(Cl)cc1NC(=O)N1CCCC(C)(C(=O)NCc2ccccc2)C1 (stereo unspecified) |
| 1100 s | CCCCC(=O)Nc1nc(-c2ccc(C)cc2C)cs1 |
| 884 s | CCn1ncn2cc(S(=O)(=O)Nc3ccc(F)c(F)c3)cc2c1=O |
| 1250 s | O=c1c2cc3c(cc2nc(SCc2nc(-c4cccc(F)c4)no2)n1Cc1ccccc1)OCO3 |
| 924 s | Cc1csc(-c2cc(S(=O)(=O)Nc3cc(Cl)ccc3F)cn2CC(=O)N2CCCC2)n1 |
| 898 s | COCCN1C(=O)Cc2ccccc2C1C(=O)NCc1ccc(Cl)cc1 (stereo unspecified) |
| 723 s | O=C(CCCN1C(=O)c2cccc3cccc(c23)C1=O)Nc1ccon1 |
| 679 s | COCCn1ccc2nc(C)c(C(=O)Nc3ccc4c(c3)OCCO4)cc2c1=O |
| 1120 s | Cc1ccc(Nc2c(-c3cc(Br)ccc3O)nc3ncccn23)c(C)c1 |
| 803 s | COCCN1C(=O)CCc2cc(NS(=O)(=O)c3cc(Cl)ccc3OC)ccc21 |

Further lines, the molecule ahead of its results:

| Structure (SMILES) | RP-LC retention time |
| --- | --- |
| Cc1sc(-c2cc(C(F)(F)F)on2)cc1S(=O)(=O)NCCC(C)C | 1200 s |
| COc1ccc([C@H]2Sc3ccccc3N(CCN(C)C)C(=O)[C@H]2OC(C)=O)cc1 | 704 s |
| O=C1COc2cc(S(=O)(=O)N3CCCC3C(=O)NC3CCCCC3)c(Cl)cc2N1 (stereo unspecified) | 779 s |
| CCCn1c(=O)c2c(nc3n2CCCCN3c2ccc(OCC)cc2)n(C)c1=O | 973 s |
| COc1cc(NC(=O)C2CCCN(c3nnc4ccccn34)C2)cc(OC)c1OC (stereo unspecified) | 634 s |
| Cc1ccc(S(=O)(=O)Nc2ccc3c(c2)CCC(=O)N3CC(C)C)c(C)c1 | 945 s |
| O=C(Cn1ncc2c(c1=O)N(C1CC1)C(=O)CS2)Nc1ccc2c(c1)OCCO2 | 693 s |
| CCC(C)NC(=O)N1CCN(c2cc(-c3cccc(OC)c3)ncn2)CC1 (stereo unspecified) | 634 s |
| COC(=O)c1cccc(N2C=C(C(=O)N3CCCC3)S(=O)(=O)c3ccc(F)cc32)c1 | 788 s |
| O=C(Nc1ccccc1)N1CCC(CCNC(=O)C2(c3ccccc3)CC2)CC1 | 882 s |
| O=C1CN(C(=O)CSc2ccccc2)c2ccccc2N1 | 694 s |
| Cc1ccccc1S(=O)(=O)N1CCC(c2nc(C(=O)N(C)C)c(C)o2)CC1 | 818 s |
| CN1CCCN(C(=O)Nc2ccc3c(c2)OCCO3)c2ccccc21 | 649 s |
| CCCOc1nccnc1NC1CCN(C(=O)c2ccsc2)CC1 | 713 s |
| CCNC(=O)N1CCCC(c2cccc(C(=O)NC3CCCC3)c2)C1 (stereo unspecified) | 764 s |
| CC(=O)NCc1nc(-c2ccc(S(=O)(=O)N3CCC(C(=O)N4CCCC4)CC3)cc2)no1 | 639 s |
| CC(C)CN1CCn2cc(C(=O)N3CCC(C)CC3)nc2C1 | 599 s |
| COCc1cc(=O)n(CC(=O)Nc2ccc(Br)cc2)c(N2CCOCC2)n1 | 892 s |

| Structure (SMILES) | RP-LC retention time |
| --- | --- |
| CC(CCNC(=O)c1nnc(-c2ccc(S(=O)(=O)N3CCCC3)cc2)o1)N1CCCCCC1 (stereo unspecified) | 644 s |
| Cc1ccc(C)c(NC(=O)C2CCN(C(=O)C3Sc4ccccc4NC3=O)CC2)c1 (stereo unspecified) | 760 s |
| CC(C)N1CCC(CC(=O)N2CCc3c(c(-c4nc(-c5ccccc5)no4)nn3C)C2)CC1 | 654 s |
| O=S(=O)(NCCc1ccsc1)c1cccnc1 | 686 s |
| COc1ccc(CCNc2ncnc(N)c2[N+](=O)[O-])cc1OC | 660 s |
| COc1ccc(C(O)CN2CCN(c3ccccc3F)CC2)cc1OC (stereo unspecified) | 642 s |
| COc1cc(Cl)c(C)cc1NC(=O)CSc1ccc(N2CCCC(C(=O)NC3CC3)C2)nn1 (stereo unspecified) | 774 s |
| C[C@]12CCC3=C4CCC(=O)C=C4CC[C@H]3[C@@H]1CC[C@@]2(O)CC#N | 796 s |
| Cc1c(C(=O)N2CCCC2)cnn1-c1cc(-c2nc(C3CC3)no2)ccn1 | 864 s |
| CCN(CC)CCNC(=O)CN1C(=O)C2CCCCN2c2ccc(S(=O)(=O)N3CCCC3)cc21 (stereo unspecified) | 633 s |
| COCc1cc(=O)n(CC(=O)Nc2ccccc2OC)c(N2CCOCC2)n1 | 846 s |
| CN1CCCn2cc(S(=O)(=O)Nc3ccc(Cl)cc3F)cc2C1=O | 727 s |
| COc1ccc(-c2nc(N(C)Cc3ccco3)c3ccccc3n2)cc1 | 765 s |
| CC(=O)N(Cc1nn(C)c2c1CN(S(=O)(=O)c1cc(C)cc(C)c1)CC2)c1ccccc1 | 856 s |
| COc1cccc(S(=O)(=O)N2C[C@@H]3C[C@H]2C[C@@H]3NC(=O)c2cccnc2)c1 | 676 s |
| CC(C)NC(=O)c1ccccc1OCC1CCCN(C2CCCC2)C1 (stereo unspecified) | 635 s |
| COc1ccc(Nc2c(-c3ccc4c(c3)OCO4)nc3cnccn23)cc1OC | 709 s |
| Cc1cc(Cl)ccc1NC(=O)N(C)CC1CCOC1 (stereo unspecified) | 756 s |
